PMC10762177, “Novel betulin derivatives as multidrug reversal agents targeting P-glycoprotein” (Scientific Reports, 2024)
Where “and” joins values, the source holds several entries; their conditions need not be identical. Equal entries are not always repeated. Structures can show the parent of a compound that is named as a salt. Where two headings read alike, the source gives them in different places.

Assays:
K562 cells = assay: MTT colorimetric assay, cytotoxicity on sensitive K562; type: cell-based; details: for toxicity: 50 μM, K562, MTT; for IC50: MTT, 48 h
Procedure: (§1) This colorimetric technique is based on the ability of viable cells to capture MTT and reduce it through the mitochondrial enzyme succinic dehydrogenase to its insoluble form, formazan crystals. […] After this time, the plate was centrifuged at 2000 rpm for 10 min, and 100 µL of DMSO was added to dissolve the formazan crystals formed. Absorbance (Abs) was read at a wavelength of 595 nm in an iMark microplate reader (Bio-Rad, USA).

K562/Dox cells = assay: MTT colorimetric assay, cytotoxicity on resistant K562/Dox; type: cell-based; details: for toxicity: 50 μM; for IC50: Homo sapiens, K562, 48 h, read-out: IC50 K562/Dox
Procedure: as §1, with “crystals. The target compounds dissolved in DMSO (0.5% v/v as final concentration which was non-toxic to cells) at a maximum concentration of 50 µM were exposed to 5 × 10^4 cells distributed in a 96-well plate and incubated for 48 h.” for “crystals.”, “USA). The percentages of cytotoxicity were determined as compared to DMSO treated control cells, which were considered 100% viable as showing the same level of growth as the untreated cells.” for “USA).”

P-gp = P-gp (Homo sapiens, UniProt P08183); assay: Rhodamine 123 intracellular accumulation assay in K562/Dox (flow cytometry); details: for FAR (fluorescence activity ratio): Rho123, K562/Dox; for MEC (minimum effective concentration): Rho123 accumulation; for MEC (minimum effective concentration) / Rho123 accumulation / anti-P-gp activity: K562/Dox; for Rho123 accumulation / anti-P-gp activity: highest concentrations tested (50 or 6.25 µM)
Chain of P-gp (P08183 whole entry): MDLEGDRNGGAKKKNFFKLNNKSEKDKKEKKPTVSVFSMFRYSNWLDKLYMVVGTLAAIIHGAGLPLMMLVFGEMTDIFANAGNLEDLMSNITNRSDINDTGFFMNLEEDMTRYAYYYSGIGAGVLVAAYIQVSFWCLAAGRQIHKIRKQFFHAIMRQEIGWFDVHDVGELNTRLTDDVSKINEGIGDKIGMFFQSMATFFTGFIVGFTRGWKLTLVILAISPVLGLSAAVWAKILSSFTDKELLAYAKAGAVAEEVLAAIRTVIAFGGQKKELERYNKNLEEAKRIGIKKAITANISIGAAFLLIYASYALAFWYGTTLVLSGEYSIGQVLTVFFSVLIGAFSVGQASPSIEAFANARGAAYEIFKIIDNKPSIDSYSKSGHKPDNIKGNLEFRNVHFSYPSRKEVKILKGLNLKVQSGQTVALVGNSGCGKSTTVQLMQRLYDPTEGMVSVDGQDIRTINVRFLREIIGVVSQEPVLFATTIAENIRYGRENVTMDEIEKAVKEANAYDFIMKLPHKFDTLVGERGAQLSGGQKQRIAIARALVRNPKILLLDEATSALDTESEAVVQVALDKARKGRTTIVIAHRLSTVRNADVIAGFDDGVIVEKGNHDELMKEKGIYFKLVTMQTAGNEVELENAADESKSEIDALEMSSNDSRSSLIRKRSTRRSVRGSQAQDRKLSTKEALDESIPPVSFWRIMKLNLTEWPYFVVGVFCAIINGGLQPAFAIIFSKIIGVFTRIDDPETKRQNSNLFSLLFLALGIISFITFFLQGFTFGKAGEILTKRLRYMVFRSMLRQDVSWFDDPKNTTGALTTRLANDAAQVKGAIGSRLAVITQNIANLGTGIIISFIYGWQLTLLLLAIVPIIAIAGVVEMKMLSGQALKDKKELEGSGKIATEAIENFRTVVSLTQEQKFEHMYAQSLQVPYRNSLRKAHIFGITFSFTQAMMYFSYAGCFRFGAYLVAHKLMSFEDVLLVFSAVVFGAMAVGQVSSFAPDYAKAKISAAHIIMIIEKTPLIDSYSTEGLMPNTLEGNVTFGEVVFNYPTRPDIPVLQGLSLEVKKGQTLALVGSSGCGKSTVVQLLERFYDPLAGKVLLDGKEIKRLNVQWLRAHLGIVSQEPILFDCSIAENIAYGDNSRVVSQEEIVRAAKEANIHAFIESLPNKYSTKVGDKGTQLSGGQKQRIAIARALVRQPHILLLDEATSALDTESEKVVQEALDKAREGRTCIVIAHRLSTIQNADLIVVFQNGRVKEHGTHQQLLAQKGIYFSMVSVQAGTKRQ

SMILES | IC50 (K562 cells; Homo sapiens, K562, 48 h, K562) [µM] | IC50 (K562/Dox cells; MTT, 48 h, K562/Dox) [µM] | FAR (fluorescence activity ratio) (P-gp; 1.56 µM) | FAR (fluorescence activity ratio) (P-gp; 3.12 µM) | FAR (fluorescence activity ratio) (P-gp; 6.25 µM) | MEC (minimum effective concentration) (P-gp) | FAR (fluorescence activity ratio) (P-gp; 25 µM) | FAR (fluorescence activity ratio) (P-gp; 50 µM) | FAR (fluorescence activity ratio) (P-gp; 12.50 µM) | further results
C=C(C)[C@@H]1CC[C@]2(COC(=O)NCCN3CCNCC3)CC[C@]3(C)[C@H](CC[C@@H]4[C@@]5(C)CC[C@H](O)C(C)(C)[C@@H]5CC[C@]43C)[C@@H]12 [Compound 6k] | 9.4 | 27 ± 1.34 | 1.35 ± 0.08 | 1.48 ± 0.07 | 2.24 ± 0.24 | 1.56 µM |  |  |  | toxicity (K562 cells): more than 55%; IC50 (K562 cells; K562): 9.44 ± 0.08 µM; toxicity (K562/Dox cells; K562/Dox, MTT): more than 55%; FAR (fluorescence activity ratio) (P-gp; 0.78 µM): 1.03 ± 0.17
COc1cccc2c1C(=O)c1c(O)c3c(c(O)c1C2=O)C[C@@](O)(C(=O)CO)C[C@@H]3O[C@H]1C[C@H](N)[C@H](O)[C@H](C)O1 [Doxorubicin, Doxorubicin hydrochloride, reference compound] | 2.61 ± 0.7 | 84.2 ± 7.08 |  |  |  |  |  |  |  | fold resistance of K562/Dox versus K562 (K562/Dox cells; ratio of IC50 values, MTT): 32.3
C=C(C)[C@@H]1CC[C@]2(COC(=O)NCCc3ccc(OC)cc3)CC[C@]3(C)[C@H](CC[C@@H]4[C@@]5(C)CC[C@H](O)C(C)(C)[C@@H]5CC[C@]43C)[C@@H]12 [Compound 6e] | > 50 | > 50 |  |  |  | 50 µM and 50.0 µM | 1.04 ± 0.11 | 1.53 ± 0.09 |  | 
COc1ccc(CCN(C)CCCC(C#N)(c2ccc(OC)c(OC)c2)C(C)C)cc1OC (stereo not drawn) [Verapamil, Verapamil hydrochloride, reference compound] |  |  |  |  |  |  |  |  |  | inhibition on proliferation / toxicity (K562 cells; 50 μM (highest concentration assayed), K562): not toxic; IC50 (K562 cells; Homo sapiens, K562): > 50 µM; inhibition on proliferation / toxicity (K562/Dox cells; 50 μM (highest concentration assayed), K562/Dox): not toxic; IC50 (K562/Dox cells): > 50 µM
C=C(C)[C@@H]1CC[C@]2(COC(=O)NCCN3CCN(C(=O)OC(C)(C)C)CC3)CC[C@]3(C)[C@H](CC[C@@H]4[C@@]5(C)CC[C@H](O)C(C)(C)[C@@H]5CC[C@]43C)[C@@H]12 [Compound 6j] | > 50 | > 50 |  |  | 1.08 ± 0.04 | 12.50 µM | 1.68 ± 0.03 | 2.57 ± 0.11 | 1.25 ± 0.02 | 
C=C(C)[C@@H]1CC[C@]2(COC(=O)/C=C/c3cc(OC)c(OC)c(OC)c3)CC[C@]3(C)[C@H](CC[C@@H]4[C@@]5(C)CC[C@H](O)C(C)(C)[C@@H]5CC[C@]43C)[C@@H]12 [Compound 3d] | > 50 | > 50 |  |  |  | > 50 µM |  | 1.00 ± 0.06 |  | Rho123 accumulation / anti-P-gp activity (P-gp): did not induce statistically significant Rho123 accumulation
C=C(C)[C@@H]1CC[C@]2(COC(=O)c3cc(OC)c(OC)c(OC)c3)CC[C@]3(C)[C@H](CC[C@@H]4[C@@]5(C)CC[C@H](O)C(C)(C)[C@@H]5CC[C@]43C)[C@@H]12 [Compound 3b] | > 50 | > 50 |  |  |  | 50 µM | 0.94 ± 0.03 | 1.06 ± 0.003 |  | 
C=C(C)[C@@H]1CC[C@]2(COC(=O)N3CCc4cc(OC)c(OC)cc4C3)CC[C@]3(C)[C@H](CC[C@@H]4[C@@]5(C)CC[C@H](O)C(C)(C)[C@@H]5CC[C@]43C)[C@@H]12 [Compound 6m] | > 50 | > 50 | 1.03 ± 0.12 | 1.17 ± 0.03 | 1.27 ± 0.09 | 3.12 µM | 1.52 ± 0.09 | 2.06 ± 0.15 | 1.32 ± 0.14 | 
C=C(C)[C@@H]1CC[C@]2(C(=O)NCc3cc(OC)c(OC)c(OC)c3)CC[C@]3(C)[C@H](CC[C@@H]4[C@@]5(C)CC[C@H](O)C(C)(C)[C@@H]5CC[C@]43C)[C@@H]12 [Compound 4] | 19.7 ± 0.59 | 34.4 ± 2.59 |  |  |  | 25 µM and 25.0 µM |  |  | 1.04 ± 0.01 | toxicity (K562 cells): more than 55%; toxicity (K562/Dox cells; K562/Dox, MTT): more than 55%; fold less active against P-gp than carbamate 6d (P-gp; ratio of MEC values, Rho123): 32
C=C(C)[C@@H]1CC[C@]2(COC(=O)NCc3ccc(N4CCN(C)CC4)cc3)CC[C@]3(C)[C@H](CC[C@@H]4[C@@]5(C)CC[C@H](O)C(C)(C)[C@@H]5CC[C@]43C)[C@@H]12 [Compound 6l] | 8 ± 1.98 | 17.4 ± 0.59 |  | 1.08 ± 0.05 | 1.30 ± 0.04 | 6.25 µM |  |  | 1.55 ± 0.03 | toxicity (K562 cells): more than 55%; toxicity (K562/Dox cells; K562/Dox, MTT): more than 55%
C=C(C)[C@@H]1CC[C@]2(COC(=O)NCc3ccc(OC)cc3)CC[C@]3(C)[C@H](CC[C@@H]4[C@@]5(C)CC[C@H](O)C(C)(C)[C@@H]5CC[C@]43C)[C@@H]12 [Compound 6b] | > 50 | > 50 |  |  |  | 50 µM | 0.90 ± 0.11 | 1.60 ± 0.07 |  | 
C=C(C)[C@@H]1CC[C@]2(COC(=O)/C=C/c3cc(OC)c(OC)cc3OC)CC[C@]3(C)[C@H](CC[C@@H]4[C@@]5(C)CC[C@H](O)C(C)(C)[C@@H]5CC[C@]43C)[C@@H]12 [Compound 3e] | > 50 | > 50 |  |  |  | > 50 µM |  | 0.78 ± 0.01 |  | Rho123 accumulation / anti-P-gp activity (P-gp): did not induce statistically significant Rho123 accumulation
C=C(C)[C@@H]1CC[C@]2(COC(=O)NCc3cc(OC)c(OC)c(OC)c3)CC[C@]3(C)[C@H](CC[C@@H]4[C@@]5(C)CC[C@H](O)C(C)(C)[C@@H]5CC[C@]43C)[C@@H]12 [Compound 6d] | > 50 | > 50 | 1.27 ± 0.08 | 1.64 ± 0.16 | 1.88 ± 0.17 | 0.78 µM | 2.48 ± 0.29 | 2.80 ± 0.32 |  | FAR (fluorescence activity ratio) (P-gp; 0.78 µM): 1.16 ± 0.03
C=C(C)[C@@H]1CC[C@]2(COC(=O)NCc3ccc(OC)c(OC)c3)CC[C@]3(C)[C@H](CC[C@@H]4[C@@]5(C)CC[C@H](O)C(C)(C)[C@@H]5CC[C@]43C)[C@@H]12 [Compound 6c] | > 50 | > 50 | 1.00 ± 0.02 | 1.13 ± 0.03 | 1.23 ± 0.01 | 3.12 µM | 1.65 ± 0.11 | 1.97 ± 0.15 | 1.40 ± 0.06 | 
C=C(C)[C@@H]1CC[C@]2(COC(=O)N3CCNCC3)CC[C@]3(C)[C@H](CC[C@@H]4[C@@]5(C)CC[C@H](O)C(C)(C)[C@@H]5CC[C@]43C)[C@@H]12 [Compound 6h] | 4.6 ± 0.24 | 12.5 ± 0.5 |  |  | 1.06 ± 0.08 |  |  |  |  | toxicity (K562 cells): more than 55%; toxicity (K562/Dox cells; K562/Dox, MTT): more than 55%; Rho123 accumulation / anti-P-gp activity (P-gp): did not induce statistically significant Rho123 accumulation
C=C(C)[C@@H]1CC[C@]2(COC(=O)Nc3cc(OC)c(OC)c(OC)c3)CC[C@]3(C)[C@H](CC[C@@H]4[C@@]5(C)CC[C@H](O)C(C)(C)[C@@H]5CC[C@]43C)[C@@H]12 [Compound 6a] | > 50 | > 50 | 1.17 ± 0.02 | 1.12 ± 0.005 | 1.12 ± 0.02 | 1.56 µM | 1.33 ± 0.11 | 1.62 ± 0.10 | 1.20 ± 0.08 | FAR (fluorescence activity ratio) (P-gp; 0.78 µM): 0.98 ± 0.02
C=C(C)[C@@H]1CC[C@]2(COC(=O)NCCc3ccc(OC)c(OC)c3)CC[C@]3(C)[C@H](CC[C@@H]4[C@@]5(C)CC[C@H](O)C(C)(C)[C@@H]5CC[C@]43C)[C@@H]12 [Compound 6f] | > 50 | > 50 | 1.13 ± 0.04 | 1.25 ± 0.02 | 1.45 ± 0.16 | 1.56 µM | 1.95 ± 0.25 | 2.27 ± 0.31 | 1.73 ± 0.18 | FAR (fluorescence activity ratio) (P-gp; 0.78 µM): 1.02 ± 0.02
